From ChEMBL document CHEMBL4020850, “Discovery of LSZ102, a Potent, Orally Bioavailable Selective Estrogen Receptor Degrader (SERD) for the Treatment of Estrogen Receptor Positive Breast Cancer” (J Med Chem, 2018)
In brackets after ≈: the same amount, converted by molar mass.

Key:
[1] = Equilibrium solubility in pH 6.8 buffer at 1 mM after 16 hrs by HPLC based shake flask method; assay type: physicochemical
[2] = Clearance in C57BL/6 mouse at 1 mg/kg, iv or 3 mg/kg, po; assay type: ADME, organism-based; conditions: in vivo
[3] = Cmax in C57BL/6 mouse at 3 mg/kg, po; assay type: ADME, organism-based; set-up: dose 3 mg/kg, route oral; conditions: in vivo
[4] = Oral bioavailability in C57BL/6 mouse at 3 mg/kg; assay type: ADME, organism-based; conditions: in vivo
MCF7 = assay: Antiproliferative activity against human MCF7 cells after 6 days in presence of estradiol by CellTiter-Glo assay; conditions: MCF7, 144 h
[5] = Clearance in Sprague-Dawley rat at 1 mg/kg, iv or 3 mg/kg, po; assay type: ADME, organism-based; conditions: in vivo
[6] = Cmax in Sprague-Dawley rat at 3 mg/kg, po; assay type: ADME, organism-based; set-up: dose 3 mg/kg, route oral; conditions: in vivo
[7] = Oral bioavailability in Sprague-Dawley rat at 3 mg/kg; assay type: ADME, organism-based; conditions: in vivo

solubility thermodynamic at 16 h, 1000 µM [1]	clearance [2]	Cmax [3]	bioavailability [4]	Structure (SMILES)	also measured
< 5 µM				CNC(=O)/C=C/c1ccc(Oc2c(-c3ccc(O)cc3)sc3cc(O)ccc23)cc1	
< 5 µM				Oc1ccc(-c2sc3cc(O)ccc3c2Oc2ccc(/C=C/c3c[nH]cn3)cc2)cc1	
	14 mL/min/kg	187 nM	5%	CC(F)(F)c1ccccc1-c1sc2cc(O)ccc2c1Oc1ccc(/C=C/C(=O)O)cc1	
	33 mL/min/kg	925 nM	34%	Cc1cc(F)ccc1-c1sc2cc(O)ccc2c1Oc1ccc(/C=C/C(=O)O)cc1	
9 µM (≈ 3.96 µg/mL)				Cn1cnc(/C=C/c2ccc(Oc3c(-c4ccc(O)cc4)sc4cc(O)ccc34)cc2)c1	
11 µM (≈ 4.92 µg/mL)				O=C(/C=C/c1ccc(Oc2c(-c3ccc(O)cc3)sc3cc(O)ccc23)cc1)NCCO	
< 5 µM				NC(=O)/C=C/c1ccc(Oc2c(-c3ccc(O)cc3)sc3cc(O)ccc23)cc1	
	18 mL/min/kg	1500 nM	30%	O=C(O)/C=C/c1ccc(Oc2c(-c3ccc(F)cc3C(F)(F)F)sc3cc(O)ccc23)cc1	
	46 mL/min/kg	46 nM	2%	Cc1cc(-c2sc3cc(O)ccc3c2Oc2ccc(/C=C/C(=O)O)cc2)ccc1O	
				CC/C(=C(\c1ccc(O)cc1)c1ccc(OCCN(C)C)cc1)c1ccccc1 [AFIMOXIFENE]	IC50 (MCF7): 9.9 nM
340 µM (≈ 138 µg/mL)				O=C(O)/C=C/c1ccc(Oc2c(-c3ccc(O)cc3)sc3cc(O)ccc23)cc1	clearance [5]: 54 mL/min/kg; Cmax [6]: 80 nM; bioavailability [7]: 6%
